This passage reports Ki and IC50 results from ChEMBL document CHEMBL1137865, “Modeling the binding affinities of beta-secretase inhibitors: application to subsite specificity” (Bioorg Med Chem Lett, 2004).

Starred links: 1 amine or outer side, 2 acyl side, 3 side chain; linkers in the order of their positions; H or OH if unused. Non-standard residues stand in square brackets, D forms with d. Residues, ends and D or L forms follow the SMILES beside them. *: point of attachment. LeuΨ(S-CHOHCH2)Ala = CC(C)C[C@H](N[*:1])[C@@H](O)C[C@@H](C)C(=O)[*:2]; X1 = O=C(O)CC[C@H](N*)C(=O)C[C@@H](Cc1ccccc1)C(=O)O

For this test, the target named is Beta-secretase 1 (Homo sapiens, UniProt P56817). Kind of test: Binding affinity against Beta-secretase.
Beta-secretase 1, sequence (P56817 whole entry): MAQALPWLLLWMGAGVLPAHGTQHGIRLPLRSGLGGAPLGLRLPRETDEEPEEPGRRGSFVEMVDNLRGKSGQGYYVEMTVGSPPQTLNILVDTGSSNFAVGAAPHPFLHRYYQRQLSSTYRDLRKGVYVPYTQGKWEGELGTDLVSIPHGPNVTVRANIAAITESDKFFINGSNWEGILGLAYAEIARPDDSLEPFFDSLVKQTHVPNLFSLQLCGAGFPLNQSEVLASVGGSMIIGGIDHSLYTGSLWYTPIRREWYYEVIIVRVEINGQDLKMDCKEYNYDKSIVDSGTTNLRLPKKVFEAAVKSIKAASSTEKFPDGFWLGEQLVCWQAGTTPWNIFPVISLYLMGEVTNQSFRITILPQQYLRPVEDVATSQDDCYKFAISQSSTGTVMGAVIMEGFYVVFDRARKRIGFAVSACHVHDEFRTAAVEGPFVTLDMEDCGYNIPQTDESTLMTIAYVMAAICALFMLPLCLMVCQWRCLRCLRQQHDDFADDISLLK
As for `CC(C)C[C@H](NCC(=O)[C@H](CS(C)(=O)=O)NC(=O)OC(C)(C)C)C(O)CC(C)C(=O)NC(C(=O)NCc1ccccc1)C(C)C` (some centres undefined), the Ki (in general, the dissociation constant of the complex between target and ligand, obtained from inhibition or displacement) stood at 1130 nM.

For `CCCN(CCC)C(=O)c1cccc(C(=O)N[C@@H](Cc2cc(F)cc(F)c2)[C@@H](O)C[C@@H](CC)C(=O)NCc2ccccc2)c1`, the 50% inhibitory concentration (IC50) (commonly the midpoint of a concentration-inhibition curve) came to 1400 nM.

As for `CC(C)C[C@H](NCC(=O)[C@H](CC(N)=O)NC(=O)OC(C)(C)C)C(O)CC(C)C(=O)NC(C(=O)NCc1ccccc1)C(C)C` (some centres undefined), affinity was put at a Ki of 3130 nM.

The molecule `CCCN(CCC)C(=O)c1cccc(C(=O)N[C@@H](Cc2cc(F)cc(F)c2)[C@@H](O)C[C@@H](CC)C(=O)NCCC(=O)O)c1` gave an IC50 of 2800 nM.

`CCCN(CCC)C(=O)c1cccc(C(=O)N[C@@H](Cc2cc(F)cc(F)c2)[C@@H](O)C[C@@H](CC)C(=O)NC[C@H]2CC[C@H](C(=O)O)CC2)c1` gave an IC50 of 50 nM.

As for `CCCN(CCC)C(=O)c1cccc(C(=O)N[C@@H](Cc2cc(F)cc(F)c2)[C@@H](O)C[C@@H](CC)C(=O)NCCCCC(=O)O)c1`, the IC50 was found to be 400 nM.

The molecule `CC(C)C[C@H](NCC(=O)[C@H](CC(N)=O)NC(=O)OC(C)(C)C)C(O)CC(C)C(=O)NC(C)C(=O)NCc1ccccc1` (some centres undefined) showed an inhibitory constant (Ki) of 22400 nM.

`CCCN(CCC)C(=O)c1cccc(C(=O)N[C@@H](Cc2cc(F)cc(F)c2)[C@@H](O)C[C@@H](CC)C(=O)N[C@H]2C[C@@H](OC)C[C@@H](OC)C2)c1` registered an IC50 of 6600 nM.

On to `CC(C)C[C@H](NC(=O)[C@@H](N)CCC(=O)O)C(=O)N[C@@H](CC(=O)O)C(=O)N[C@@H](CC(C)C)[C@@H](O)C[C@@H](C)C(=O)N[C@H](C(=O)N[C@@H](CCC(=O)O)C(=O)C[C@@H](Cc1ccccc1)C(=O)O)C(C)C` (H-ELD[LeuΨ(S-CHOHCH2)Ala]V-X1), for which the inhibition constant Ki came out at 0.32 nM.
